Results taken from patent US20060094702A1, “5-HT4 receptor antagonists” (SMITHKLINE BEECHAM P.L.C., priority 1993, published 2006).

Biological target: T1, 5-HT4 receptor (Cavia porcellus, UniProt O70528)
T1 construct: Longitudinal muscle-myenteric plexus preparations, approximately 3 cm long, are obtained from the distal colon region; from tissue; host or cells: guinea-pig distal colon longitudinal muscle-myenteric plexus
Assay: Guinea pig colon 5-HT4 receptor antagonist activity (5-HT evoked contraction of longitudinal muscle-myenteric plexus)
Details: guinea-pig distal colon longitudinal muscle-myenteric plexus; contractions evoked by 5-HT; methiothepin 10^-7M and granisetron 10^-6M present; read-out: pIC50 (-log concentration of antagonist which reduces the contraction by 50%) (converted)
Description: 5-HT4 Receptor Antagonist Activity
Male guinea-pigs, weighing 250-400 g are used. Longitudinal muscle-myenteric plexus preparations, approximately 3 cm long, are obtained from the distal colon region. These are suspended under a 0.5 g load in isolated tissue baths containing Krebs solution bubbled with 5% CO2 in O2 and maintained at 37° C. In all experiments, the Krebs solution also contains methiothepin 10^-7M and granisetron 10^-6M to block effects at 5-HT1, 5-HT2 and 5-HT3 receptors.
After construction of a simple concentration-response curve with 5-HT, using 30 s contact times and a 15 min dosing cycle, a concentration of 5-HT is selected so as to obtain a contraction of the muscle approximately 40-70% maximum(10^-9M approx). The tissue is then alternately dosed every 15 min with this concentration of 5-HT and then with an approximately equi-effective concentration of the nicotine receptor stimulant, dimethylphenylpiperazinium (DMPP). After obtaining consistent responses to both 5-HT and DMPP, increasing concentrations of a putative 5-HT4 receptor antagonist are then added to the bathing solution. The effects of this compound are then determined as a percentage reduction of the contractions evoked by 5-HT or by DMPP. […] A compound which reduces the response to 5-HT but not to DMPP is believed to act as a 5-HT4 receptor antagonist.

T1 sequence (O70528 whole entry): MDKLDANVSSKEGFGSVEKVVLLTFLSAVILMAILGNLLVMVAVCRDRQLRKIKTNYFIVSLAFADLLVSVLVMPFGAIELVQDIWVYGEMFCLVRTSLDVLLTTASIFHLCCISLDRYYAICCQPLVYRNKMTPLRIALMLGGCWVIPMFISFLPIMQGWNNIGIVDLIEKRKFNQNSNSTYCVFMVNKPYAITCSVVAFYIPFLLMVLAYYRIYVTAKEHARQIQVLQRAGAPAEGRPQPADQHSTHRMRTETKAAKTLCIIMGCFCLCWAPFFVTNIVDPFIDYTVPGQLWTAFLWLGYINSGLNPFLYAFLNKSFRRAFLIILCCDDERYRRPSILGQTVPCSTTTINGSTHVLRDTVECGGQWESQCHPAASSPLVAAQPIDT

`CCCCN1CCC(CCC(=O)c2cn(C)c3ccccc23)CC1` [Example 1, 1-(1-Methyl-1H-indol-3-yl)-3-(1-butylpiperidin-4-yl)propan-1-one] showed an IC50 of 0.158 µM.
